From patent US8734869B2, “Synergistic pest-control compositions” (TyraTech, Inc., priority 2007, dated 2014)

Experiments:
male German Cockroach = test: Time to kill: five microliters applied to the sternum, time to death recorded (stopped at one hour); format: in vivo; conditions: five microliters on sternum
Protocol: Five microliters of the oil or oil blend listed in the table below were applied to the sternum of a male German Cockroach, and the time to death was recorded (time keeping was stopped at one hour). Sample size N=60 for Blend 24 and N=40 for each of the oil components. Components were diluted with acetone. Five microliters of the oil or oil blend listed in the table below were applied to the sternum of a male German Cockroach, and the time to death was recorded (time keeping was stopped at one hour). Sample size N=60 for Blend 41 and each of the oil components. Components were diluted with acetone. Five microliters of the oil or oil blend listed in the table below were applied to the sternum of a male German Cockroach, and the time to death was recorded (time keeping was stopped at one hour). Sample size N=40 for Blend 41 and each of the oil components. Components were diluted with acetone.

[1] = tested on: olfactory receptor activation in Drosophila S2 cells; test: Ca2+ release triggered by olfactory receptor activation in Drosophila S2 cells; format: cell-based
Text: In embodiments of the present invention, a Drosophila Schneider 2 (S2) cell line is stably transfected with a G protein-coupled receptor that is amplified from Drosophila melanogaster head cDNA phage library. The cell line can be used to screen potential active ingredients, as described below.
The potential for insect control activity can be identified by measuring the affinity of the test compositions for the receptor in the cell lines expressing a TyrR, Or83b, and/or Or43a. The potential for insect control activity can also be identified by measuring the change in intracellular cAMP and/or Ca2+ in the cell lines expressing TyrR, Or83b, and/or Or43a following treatment with the test compositions. The gene sequences of the TyrR, the Or 83b receptor and the Or 43a receptor have substantial similarity between various insect species. As such, the Drosophila Schneider cell lines expressing these receptors can be used to screen for compositions having insect control activity in various insect species.
A blend can is prepared and combined with a synthetic pyrethroid such as delatmetrhin. For example, Blend 41 was combined with deltamethrin (DM) and the efficacy of Blend 41 and DM individually were compared to the efficacy of Blend 41 and DM combined. […]

American cockroaches [2] = test: Residual activity of stabilized compositions, treated jars reused, mortality 24 hours after exposure; format: in vivo, American cockroach; conditions: tested about 48 hours after application
Protocol: A solution of 5% thyme crystals (TC) is prepared in acetone and about 2 ml of the solution is applied to the bottom of a glass jar. About 2 ml of six compositions (R1-R6), set forth in Table 19-A, are each applied to the bottom of a separate jar. Thyme Crystals (5%, by weight) are combined with the six compositions (R1-R6) to produce six formulations. About 2 ml of each formulation is applied to a separate jar.
[…] Mortality is recorded about 24 hours after exposure. All jars are kept under room temperature and reused at subsequent time points to evaluate residual activity. […] Mortality is recorded about 24 hours after each exposure.

American cockroaches [3] = test: Residual activity of stabilized compositions, separate jar per time period; format: in vivo, American cockroach; conditions: tested about 48 hours after application; separate jar per time point
Protocol: In studies where treatment jars are reused at various time intervals, as described in Example 19, the materials in the jars are lost after each exposure due to contact with and transfer to the insect body, rather than via loss due to volatility of the material. As such, additional studies are conducted wherein a separate jar is prepared for each time period.
A solution of 5% thyme crystal (TC) is prepared in acetone and about 2 ml of the solution is applied to the bottom of five separate glass jars, one for each time point at which mortality is assessed. About 2 ml of six compositions (R1-R6), set forth above in Table 19-A, are each applied to the bottom of five separate jars. Thyme Crystals (5%, by weight) are combined with the six compositions (R1-R6) to produce six formulations. About 2 ml of each formulation is applied to five separate jars.
[…] Mortality is recorded about 24 hours after exposure. […] Mortality is recorded about 24 hours after each exposure.

American cockroaches [4] = test: Treated jar test, knockdown and mortality time: Blend 41, deltamethrin, combination; format: in vivo, American cockroach; conditions: average of 3 replicates, 5 roaches each
Protocol: To test efficacy of the composition, a small amount of each test chemical is introduced to a separate jar. About 3 to 5 American cockroaches are introduced to each jar at different time intervals. Mortality and/or immobilization (knockdown, KD) data is recorded and compared. Such data is recorded as seconds (s) following introduction of the insect to the treated jar. The resulting data is contained in the following table.
The data is the average of 3 replicates, 5 roaches in each replicate.

German Cockroach = test: Bioactivity of Blend 13, deltamethrin and combination; format: in vivo
Drosophila S2 cells = test: cAMP response in cells treated with Blend 41, imidacloprid and combinations; format: cell-based
Text: FIG. 23 is a bar graph showing percent knockdown in response to treatment of Aedes aegypti with various compositions of including Blend 41 alone, Imidacloprid alone, and combinations of Blend 41 and Imidacloprid. FIG. 24 is a bar graph showing percent knockdown in response to treatment of Aedes aegypti with various compositions of including Blend 41 alone, Imidacloprid alone, and combinations of Blend 41 and Imidacloprid. FIG. 25 is a bar graph showing cAMP signal produced in response to treatment of Drosophila S2 cells treated with various compositions of including Blend 41 alone, Imidacloprid alone, and combinations of Blend 41 and Imidacloprid.

## CCCCCCCCCCCCCC(=O)OC(C)C [Isopropyl myristate, propan-2-yl tetradecanoate]
Male German Cockroach; component at 40%, diluted with acetone
  Percent of Tested Insects > 1 hr Time to Death: 100%

## C=C(C)[C@H]1CC=C(C)CC1 [D-Limonene]
Male German Cockroach; component at 83%, diluted with acetone
  Percent of Tested Insects > 1 hr Time to Death: 25%
Male German Cockroach; component of Blend 31 diluted with acetone, concentration not given
  Percent of Tested Insects > 1 hr Time to Death: 22.5%

## CN/C(=N\[N+](=O)[O-])NCc1cnc(Cl)s1 [clothianidin]
[1]
  Ca2+ release, single agent alone: increase in Ca^2+ release

## Cc1ccc(C(C)C)c(O)c1 [thyme crystal]
American cockroaches [2]
  residual activity: does not have residual activity
American cockroaches [3]
  residual activity: does not have residual activity

## CC1(C)[C@H](C(=O)O[C@H](C#N)c2cccc(Oc3ccccc3)c2)[C@@H]1C=C(Br)Br [deltamethrin]
American cockroaches [4]; time to 100% kill in treated jar
  100% Kill: 12 min
American cockroaches [4]; time to knockdown in treated jar
  KD: 140 s
German Cockroach
  Bioactivity 100% Kill: 15 min
  Bioactivity KD: 120 s

## O=[N+]([O-])NC1=NCCN1Cc1ccc(Cl)nc1 [imidacloprid]
Drosophila S2 cells; 100 PPM
  cAMP: 9.1 nM
Drosophila S2 cells; 333 PPM
  cAMP: 9.4 nM
Drosophila S2 cells; 500 PPM
  cAMP: 8.8 nM
